Like-named read-outs stand apart in the source and are kept apart here.
How the values were obtained:
[1] = target: T1, D2 dopamine receptors (Rattus norvegicus, UniProt P61169); assay: D2 dopamine receptor binding: inhibition of tritiated (S)-sulpiride binding, rat striatal samples; set-up: species or system rat (male Charles River CD rats); conditions: for Ki: rat striatum, tritiated (S)-sulpiride; for Ki for D2 / Ki for D1: ratio to two significant figures
T1 construct: Striatal samples from the brains of male Charles River CD rats; from tissue; host or cells: striatum of male Charles River CD rats (washed membrane pellet)
T1 sequence (P61169 whole entry): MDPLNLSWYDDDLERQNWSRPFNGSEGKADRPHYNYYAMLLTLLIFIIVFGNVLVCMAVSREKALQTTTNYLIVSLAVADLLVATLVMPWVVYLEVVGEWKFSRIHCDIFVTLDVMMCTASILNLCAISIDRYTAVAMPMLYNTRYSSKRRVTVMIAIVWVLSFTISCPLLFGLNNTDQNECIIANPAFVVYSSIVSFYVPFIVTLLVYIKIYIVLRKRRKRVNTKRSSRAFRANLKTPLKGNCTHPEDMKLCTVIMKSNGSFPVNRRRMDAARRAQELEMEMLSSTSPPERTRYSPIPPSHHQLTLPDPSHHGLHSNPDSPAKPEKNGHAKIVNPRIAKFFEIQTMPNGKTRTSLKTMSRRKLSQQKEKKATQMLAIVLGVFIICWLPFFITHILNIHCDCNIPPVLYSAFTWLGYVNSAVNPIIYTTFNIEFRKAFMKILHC
Method: (§1) Striatal samples from the brains of male Charles River CD rats weighing between 140-250 g were homogenised in ice-cold 50 mM Tris-HCl buffer (pH 7.4 when measured at 25° C. for D1 binding assays and pH 7.7 when measured at 25° C. for D2 binding assays) and centrifuged for 10 minutes (at 21,000 g when used for D1binding assay and 40,000 g when used for D2binding assays). The pellet was resuspended in the same buffer, again centrifuged and the final pellet stored at -80° C. Before each test the pellet was resuspended in 50 mM Tris-HCl buffer containing 120 mM NaCl, 5 mM KCl, 2 mM CaCl2 and 1 mM MgCl2 at pH 7.4 for the D1 binding assays and at pH 7.7 with the addition of 6 mM ascorbic acid for the D2 binding assays. Aliquots of this suspension were then added to tubes containing the ligand and either the compound under test or buffer. For the D1 binding assays the ligand was tritiated SCH 23390 and the mixture was incubated at 37° C. for 30 minutes before the incubation was terminated by rapid filtration. For the D2 binding assays the ligand was tritiated (S)-sulpiride and the mixture was incubated at 4° C. for 40 minutes before the incubation was terminated by rapid filtration. Non-specific binding was determined experimentally by the addition of saturating concentrations of chloropromazine or spiroperidol for D1 and D2 receptors respectively.
(§2) The filters were washed with ice-cold Tris-HCl buffer and dried. The filters were punched out on to vials containing scintillation fluid and were left for about 20 hours before being counted by scintillation spectrophotometry. Displacement curves were produced over a range of concentrations of the compound under test and the concentration which gave a 50% inhibition of specific binding (IC50) obtained from the curve. The inhibition coefficient Ki was then calculated using the formula [formula] in which [ligand] is the concentration of the tritiated ligand used and KD is the equilibrium dissociation constant for the ligand.
(§3) In some cases Ki values for D2 binding were estimated from single concentration data by the application of the Langmuir adsorption isotherm equation. These cases are indicated by an "E" in the last two columns of Table I. In other cases it was not possible to determine or estimate the Ki and the Ki value is given as greater than (>) that which would result from the application of the above formula to the highest concentration which displaced ≤50% of the ligand.

[2] = target: T2, D1 dopamine receptors (Rattus norvegicus, UniProt P18901); assay: D1 dopamine receptor binding: inhibition of tritiated SCH 23390 binding, rat striatal samples; set-up: species or system rat (male Charles River CD rats); conditions: rat striatum, tritiated SCH 23390, pH 7.4, 37° C., 30 minutes
T2 construct: Striatal samples from the brains of male Charles River CD rats; from tissue; host or cells: striatum of male Charles River CD rats (washed membrane pellet)
T2 sequence (P18901 whole entry): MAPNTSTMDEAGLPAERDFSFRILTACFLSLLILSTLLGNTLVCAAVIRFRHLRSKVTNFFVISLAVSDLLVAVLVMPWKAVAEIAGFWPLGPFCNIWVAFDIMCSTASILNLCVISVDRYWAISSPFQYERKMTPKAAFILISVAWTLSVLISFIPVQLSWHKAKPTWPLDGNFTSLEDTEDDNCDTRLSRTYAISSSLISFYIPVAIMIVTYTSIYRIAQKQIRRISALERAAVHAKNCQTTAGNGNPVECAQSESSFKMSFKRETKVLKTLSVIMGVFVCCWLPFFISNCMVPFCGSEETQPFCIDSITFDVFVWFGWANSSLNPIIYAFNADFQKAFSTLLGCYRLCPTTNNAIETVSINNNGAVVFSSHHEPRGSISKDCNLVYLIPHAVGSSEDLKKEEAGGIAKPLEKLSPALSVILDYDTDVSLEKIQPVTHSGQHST
Method: as §1, §2, §3

[3] = pH 7.7, 4° C., 40 minutes, > = from highest concentration which displaced ≤50% of the ligand, read-out: Ki for D2 binding
[4] = estimated from single concentration data by Langmuir adsorption isotherm equation, read-out: Ki for D2 binding (marked E)

SMILES | Ki [1, 3] [nM] | Ki for D2 / Ki for D1 [1] | Ki [2] [nM] | Ki [1, 4] [nM]
CN1CCc2cc(O)c(O)cc2C1C1(c2ccc(Cl)cc2)CCC1 (stereo not shown) [Example 50, 1-[1-(4-chlorophenyl)cyclobutyl]-6,7-dihydroxy-2-methyl-1,2,3,4-tetrahydroisoquinoline] | 1500 | 60 | 25 | 
COc1ccc(C2(C3c4cc(O)c(O)cc4CCN3C)CCC2)cc1 (stereo not shown) [Example 54] | 3000 | 94 | 32 | 
COc1cc2c(cc1O)C(C1(c3ccccc3)CCC1)N(C)CC2 (stereo not shown) [Example 55, 7-hydroxy-6-methoxy-2-methyl-1-(1-phenylcyclobutyl)-1,2,3,4-tetrahydroisoquinoline] | > 500 | > 12 | 41 | 
CN1CCc2cc([N+](=O)[O-])c(O)cc2C1C1(c2ccccc2)CCC1 (stereo not shown) [Example 57, 7-hydroxy-2-methyl-6-nitro-1-(1-phenylcyclobutyl)-1,2,3,4-tetrahydroisoquinoline] | > 5000 | > 6.5 | 770 | 
CN1CCc2cc(Cl)c(O)c(Cl)c2C1C1(c2ccccc2)CCC1 (stereo not shown) [Example 58, 6,8-dichloro-7-hydroxy-2-methyl-1-(1-phenylcyclobutyl)-1,2,3,4-tetrahydroisoquinoline] | 360000 | 490 | 740 | 
CCN1CCc2cc(O)c(O)cc2C1C1(c2ccc(Cl)cc2)CCC1 (stereo not shown) [Example 66, 1-[1-(4-chlorophenyl)cyclobutyl]-2-ethyl-6,7-dihydroxy-1,2,3,4-tetrahydroisoquinoline] | > 500 | > 4.2 | 120 | 
C=CCN1CCc2cc(O)c(O)cc2C1C1(c2ccc(Cl)cc2)CCC1 (stereo not shown) [Example 67, 2-allyl-1-[1-(4-chlorophenyl)cyclobutyl]-6,7-dihydroxy-1,2,3,4-tetrahydroisoquinoline] |  |  | 53 | 7000
COc1cc2c(cc1O)C(C1(c3ccc(OC(F)(F)F)cc3)CCC1)N(C)CC2 (stereo not shown) [Example 72, 7-hydroxy-6-methoxy-2-methyl-1-[1-(4-trifluoromethoxyphenyl)cyclobutyl]-1,2,3,4-tetrahydroisoquinoline] | 9500 | 200 | 47 | 
COCCN1CCc2cc(OC)c(O)cc2C1C1(c2ccccc2Cl)CC1 (stereo not shown) [Example 75, 1-[1-(2-chlorophenyl)cyclopropyl]-7-hydroxy-6-methoxy-2-(2-methoxyethyl)-1,2,3,4-tetrahydroisoquinoline] | > 5000 | > 33 | 150 | 
COc1cc2c(cc1O)C(C1(c3ccccc3Cl)CC1)N(CCO)CC2 (stereo not shown) [Example 76, 1-[1-(2-chlorophenyl)cyclopropyl]-7-hydroxy-2-(2-hydroxyethyl)-6-methoxy-1,2,3,4-tetrahydroisoquinoline] | > 5000 | > 83 | 60 | 
CN1CCc2cc(O)c(O)cc2C1C1(c2ccc(-c3ccccc3)cc2)CCC1 (stereo not shown) [Example 78, 6,7-dihydroxy-2-methyl-1-[1-(4-biphenylyl)cyclobutyl]-1,2,3,4-tetrahydroisoquinoline] | 550 | 5.9 | 94 | 

Compounds with a lower Ki [2], results first:

Ki [1, 3] [nM] | Ki for D2 / Ki for D1 [1] | Ki [2] [nM] | Ki [1, 4] [nM] | SMILES
> 500 | > 38 | 13 |  | CN1CCc2ccc(O)cc2C1C1(c2ccc(Cl)cc2)CCC1 (stereo not shown) [Example 51, 1-[1-(4-chlorophenyl)cyclobutyl]-7-hydroxy-2-methyl-1,2,3,4-tetrahydroisoquinoline]
5400 | 320 | 17 |  | CN1CCc2cc(Cl)c(O)cc2C1C1(c2ccccc2)CCC1 (stereo not shown) [Example 52, 6-chloro-7-hydroxy-2-methyl-1-(1-phenylcyclobutyl)-1,2,3,4-tetrahydroisoquinoline]
7600 | 320 | 24 |  | CN1CCc2cc(Cl)c(O)cc2C1C1(c2ccc(Cl)cc2)CCC1 (stereo not shown) [Example 53, 6-chloro-1-[1-(4-chlorophenyl)cyclobutyl]-7-hydroxy-2-methyl-1,2,3,4-tetrahydroisoquinoline]
52000 | 23000 | 2.3 |  | COc1cc2c(cc1O)C(C1(c3cc(OC)c(OC)cc3Br)CCC1)N(C)CC2 (stereo not shown) [Example 56, 1-[1-(2-bromo-4,5-dimethoxyphenyl)cyclobutyl]-7-hydroxy-6-methoxy-2-methyl-1,2,3,4-tetrahydroisoquinoline]
450 | 2500 | 0.18 |  | CN1CCc2cc(F)c(O)cc2C1C1(c2ccccc2Cl)CC1 (stereo not shown) [Example 61, 1-[1-(2-chlorophenyl)cyclopropyl]-6-fluoro-7-hydroxy-2-methyl-1,2,3,4-tetrahydroisoquinoline]
1600 | 800 | 2 |  | CN1CCc2cc(F)c(O)cc2C1C1(c2ccccc2Cl)CC1 (stereo not shown) [Example 63, 1-[1-(2-chlorophenyl)cyclopropyl]-6-fluoro-7-hydroxy-2-methyl-1,2,3,4-tetrahydroisoquinoline]
51000 | 2300 | 22 |  | C=CCN1CCc2cc(Cl)c(O)cc2C1C1(c2ccccc2)CCC1 (stereo not shown) [Example 65, 2-allyl-6-chloro-7-hydroxy-1-(1-phenylcyclobutyl)-1,2,3,4-tetrahydroisoquinoline]
1900 | 950 | 2 |  | COc1cc2c(cc1O)C(C1(c3ccccc3Br)CCC1)N(C)CC2 (stereo not shown) [Example 68, 1-[1-(2-bromophenyl)cyclobutyl]-7-hydroxy-6-methoxy-2-methyl-1,2,3,4-tetrahydroisoquinoline]
5800 | 2800 | 2.1 |  | COc1cc2c(cc1O)C(C1(c3ccccc3Cl)CCC1)N(C)CC2 (stereo not shown) [Example 69, 1-[1-(2-chlorophenyl)cyclobutyl]-7-hydroxy-6-methoxy-2-methyl-1,2,3,4-tetrahydroisoquinoline]
35000 | 1700 | 21 |  | COc1cc2c(cc1O)C(C1(c3ccccc3Cl)CC(C)(C)C1)N(C)CC2 (stereo not shown) [Example 70, 7-hydroxy-6-methoxy-2-methyl-1-[1-(2-chlorophenyl)-3,3-dimethylcyclobutyl]-1,2,3,4-tetrahydroisoquinoline]
1800 | 1200 | 1.5 |  | CSc1ccccc1C1(C2c3cc(O)c(O)cc3CCN2C)CCC1 (stereo not shown) [Example 71, 6,7-dihydroxy-2-methyl-1-[1-(2-methylthiophenyl)cyclobutyl]-1,2,3,4-tetrahydroisoquinoline]
5000 | 5500 | 0.9 |  | COc1cc2c(cc1O)C(C1(c3ccccc3OC)CC1)N(C)CC2 (stereo not shown) [Example 73, 7-hydroxy-6-methoxy-1-[1-(2-methoxyphenyl)cyclopropyl]-2-methyl-1,2,3,4-tetrahydroisoquinoline]
1100 | 730 | 1.5 |  | COc1cc2c(cc1O)C(C1(c3ccccc3Cl)CC1)N(C)CC2 (stereo not shown) [Example 74, 1-[1-(2-chlorophenyl)cyclopropyl]-7-hydroxy-6-methoxy-2-methyl-1,2,3,4-tetrahydroisoquinoline]
940 | 780 | 1.2 |  | Cc1cc2c(cc1O)C(C1(c3ccccc3Cl)CC1)N(C)CC2 (stereo not shown) [Example 79, 1-[1-(2-chlorophenyl)cyclopropyl]-7-hydroxy-2,6-dimethyl-1,2,3,4-tetrahydroisoquinoline]
330 | 170 | 1.9 |  | CN1CCc2cc(F)c(O)cc2C1C1(c2ccc(Cl)cc2Cl)CC1 (stereo not shown) [Example 81, 1-[1-(2,4-dichlorophenyl)cyclopropyl]-6-fluoro-7-hydroxy-2-methyl-1,2,3,4-tetrahydroisoquinoline]
4900 | 2700 | 1.8 |  | COc1cc2c(cc1O)C(C1(c3cccc4c3OCC4)CC1)N(C)CC2 (stereo not shown) [Example 82, 1-[1-(2,3-dihydrobenzo[b]furan-7-yl)cyclopropyl]-7-hydroxy-6-methoxy-2-methyl-1,2,3,4-tetrahydroisoquinoline]
 |  | 21 | 6600 | CN1CCc2cc(O)c(O)cc2C1C1(c2ccccc2C#N)CCC1 (stereo not shown) [Example 83, 1-[1-(2-cyanophenyl)cyclobutyl]-6,7-dihydroxy-2-methyl-1,2,3,4-tetrahydroisoquinoline]

From patent publication US5519034A, “Tetraisoquinoline compounds which have useful pharmaceutical utility” (The Boots Company PLC, priority 1991, dated 1996)
